# Measured values: patent US12628822B2, “Plant pathogen defence elicitors” (UNIVERSITÉ LIBRE DE BRUXELLES, priority 2020, dated 2026)
# Experiments:
# Format in all cases: in vivo, Arabidopsis thaliana
# [1] = system: defence marker genes; experiment: qPCR analysis of defence marker gene expression in Arabidopsis plants
# Method: Arabidopsis thaliana Columbia (Col-0) was the accession used for all the experiments. Seeds were surface sterilised by subsequent treatment with 50% v/v Et-OH and 3% bleach solution in agitation for 5 and 10 min, respectively. Seeds were then washed three times with distilled water and stratified for 3 days at 4° C. in the dark. For qPCR analysis and microarray experiments, seeds were sown on square petri dishes ([…]) containing half strength Murashige and Skoog (MS) salt, 2.5 mM MES, 1% w/v sucrose and 0.8% w/v plant agar. The experiments were performed using 14-day old seedlings grown vertically in a controlled growth cabinet with short day conditions ( 8/16 h light/dark; 100 μmol photons m^−2 s^−1) at 22±0.5° C. Treatments were performed by applying 40-50 μl of fresh-prepared and filtered solution per seedling.
# For RNA extraction, 14-day old leaves from ten independent plants were collected at the indicated time point after treatments, pooled and frozen in liquid nitrogen. Total RNA was extracted from 100 mg of ground-frozen samples using the Maxwell® LEV Plant RNA Kit (Promega, Madison, WI, USA) and the RNA integrity was determined through NanoDrop 2000 UV-Vis Spectrophotometer (Thermo Scientific, Loughborough, UK). First-strand cDNA was synthesized by using SOLIScript® RT cDNA synthesis MIX (Solis Biodyne, Tartu, Estonia) and qPCRs were performed using SYBR® Selected MasterMix 2× (Applied Biosystems, Thermo Fisher Scientific, Waltham, USA), following the manufacturers' protocols. The cycling conditions consisted of an initial 7 min at 95° C., followed by 40 two-step cycles at 95° C. for 5 s and at 60° C. for 30 s. Melting curve analysis was performed after cycle completion to validate amplicon identity. Relative expression levels were calculated following the standard curve-based method (Larionov et al. A standard curve based method for relative real time PCR data processing, BMC Bioinformatics. 2005, vol. 6, 1) by using ACTIN as reference. Gene-specific primers used in this work are indicated below. […]
# [2] = system: camalexin; experiment: Camalexin quantification by LC-MS; conditions: 100 μM, 24 h, 14-day-old Col-0 plants
# Method: For each treatment, camalexin was extracted from a pool of 14-day-old Arabidopsis. Briefly, 100 mg of ground-frozen samples were soaked using 80% (v:v) methanol in 1:1 (m/v) ratio. After homogenization, the supernatant was recovered through centrifugation at 17,000×g for 5 min and evaporated at 50° C. in nitrogen gas atmosphere. The residues were finally resuspended in high-performance LC-grade methanol and filtrated with 0.22-μm filters. Each pool was then analysed three times by LC-MS, using a reverse-phase LUNA® Omega 5 μm Polar C18 column (250×4.6 mm). The mobile phases were composed of 0.1% […] (solvent A) and acetonitrile (solvent B). The applied gradient was as follows: 0-2 min, 10% B; 2-13 min, 10-98% B; 13-23 min, 98% B; 23-25 min, 98-10% B; 25-30 min, […]; post-run 1 min.
# [3] = system: MPK3/6; experiment: Western-blot analysis of MPK3/6 phosphorylation; conditions: 100 μM, 5 mins after treatment, Col-0 plants
# Method: FIG. 10d illustrates early immunohistochemical quantification or Western-blot analysis of the MPK3/6 phosphorylation after the indicated treatments. […] Leaves were collected 5 mins after treatment, immediately frozen in liquid nitrogen, and stored at −80° C. for analysis. […] The separated proteins were transferred on a 0.45-μm Immobilon-PPVDF membrane (Millipore). Blocking was performed in TBST containing 5% non-fat dry milk, and blots were incubated overnight at 4° C. with specific antibodies (anti-AtMPK6 and anti-Phospho-p44/42 MPK (Thr202/Tyr204)), washed in TBST, and incubated with the secondary antibody anti-Rabbit IgG conjugated with horseradish peroxidase (HRP) enzyme diluted to 1/10,000. The chemiluminescent detection of HRP was performed withClarity™Western ECL Substrate and ChemiDoc™MP Imaging System.
# [4] = vs CTR, same array-hybridised RNA
smiles,measurement,setting,value
"OC[C@H]1O[C@@H](O[C@H]2[C@H](O)[C@@H](O)[C@H](O)O[C@@H]2CO)[C@H](O)[C@@H](O)[C@@H]1O [Cellobiose, β-D-glucopyranosyl(1→4)D-glucopyranose]","mRNA accumulation of MPK3/6, WRKY33, PAD3 and PEN3","[1]; 100 μM, 1 and 24 hours, 14-day old plants",lower magnitude of expression
same,"LOX4 (AT1G72520) gene expression, qPCR",[1]; [4],0.69 fold change
same,"MPK3 (AT3G45640) gene expression, qPCR",[1]; [4],0.02 fold change
same,"MPK6 (AT2G43790) gene expression, qPCR",[1]; [4],0.55 fold change
same,"PAD3 (AT3G26830) gene expression, qPCR",[1]; [4],−1.06 fold change
same,"PEN3 (AT1G59870) gene expression, qPCR",[1]; [4],1.07 fold change
same,"PR1 (AT2G14610) gene expression, qPCR",[1]; [4],1.29 fold change
same,"WRKY18 (AT4G31800) gene expression, qPCR",[1]; [4],2.60 fold change
same,"WRKY22 (AT4G01250) gene expression, qPCR",[1]; [4],1.10 fold change
same,"WRKY33 (AT2G38470) gene expression, qPCR",[1]; [4],1.31 fold change
same,"IGMT2 (At1G21120) gene expression, qPCR","[1]; vs mock, same array-hybridised RNA",−1.59 fold change
same,camalexin level,[2],3.7 ± 1.8 ng/g
same,Early MPK3/6 phosphorylation,[3],no phosphorylation was observed
